Consider 2 molecules from patent US20240109877A1, “PYRIMIDINES FOR DEGRADING BRUTON'S TYROSINE KINASE” (AbbVie Inc., priority 2022, published 2024).

One assay has as its target BTK in mouse bone marrow (Mus musculus (Mouse), UniProt P35991). The assay can be described thus: Mouse Bone Marrow Assay (MSD ELISA of BTK degradation in mouse bone marrow). The conditions noted are these: female C57BL/6J mice, single dose of Dose A, bone marrow collected after 24 hours, % remaining BTK in vehicle versus treated samples. The class given is in vivo. As for the experimental part:
Female C57BL/6J mice (Jackson Laboratories) were used for this study. Compounds or vehicle/control were prepped with EtOH; PEG-400; Phosal 53 MCT (10:30:60, v/v). Four mice were tested per compound or vehicle/control. On Day 1, mice were administered a single dose of Dose A. On Day 2 (after 24 hours), tissue (bone marrow) was collected from one hind leg per mouse.
An MSD (Meso Scale Discovery) ELISA (enzyme-linked immunosorbent assay) based assay was used to determine BTK degradation in mouse bone marrow. The following materials and equipment were used: 10% NP40 solution (nonionic polyoxyethylene surfactant, ThermoFisher, cat no. 28324); protease inhibitor mini tablet (Roche, cat no. 05 892 970 001); PhosphoSTOP™ tablet (Roche, cat no. 04 906 837 001); Pierce™ BCA Protein Assay Kit (Thermofisher, Cat No. 23225); Precellys® 2 mL lysing tube with 2.8 mm beads (VWR, cat no. 10032-756); Bertin Precellys® 24/Cryolys ® cooling system; 96-well MSD streptavidin pre-coated plates (MSD, cat no. L15SA-1); MSD Blocker A (MSD, cat no. R93BA-4); capture antibody, biotinylated BTK mAb (BD Biosciences, cat no. 624008; custom order); primary detection antibody, BTK RpAb (rabbit polyclonal antibody, CST, cat no. 8547S, D3H5 clone); secondary detection antibody, anti-Rabbit-Sulfo-Tag (MSD, cat no. R32AB-1); read Buffer, 4× (MSD, cat no. R92TC-1); recombinant BTK protein (Thermofisher, cat no. PR5442A); MSD Tris Wash Buffer (10×) (MSD, cat no. R61TX-1); PBS (phosphate-buffered saline); deionized water (diH2O); Lysis Buffer [0.2% NP40 in PBS+Protease Inhibitor tablet (1 tablet/10 mL)+PhosphoSTOP tablet (1 tablet/10 mL)]; 3% MSD Blocker A [MSD Blocker A+450 mL diH2O+50 mL]; and 10× MSD Tris Wash Buffer.
Lysis buffer [(PBS+0.2% NP40+PI (protease inhibitor)+PhosphoSTOP)]was prepared and put on ice until it was fully cold. Ice cold lysis buffer […] was added to each Precellys® tube containing beads and bone marrow sample. Sample tubes were transferred into Precellys® machine and homogenized using 5000 rpm -2×20 seconds. The sample lysates were centrifuged at 14,000 rpm for 20 minutes at 4° C. after homogenizing.
The protein concentration was determined using Pierce™ BCA Protein Assay Kit following manufacturer's recommended protocol. The protein normalized working solution was prepared, using 30 μg protein per sample lysate for assay.
A 300 ng/ml working stock solution of recombinant BTK protein in lysis buffer was prepared, and the sample was serially diluted at 3-fold dilution (10-point assay, highest concentration was 300 ng/mL and lowest concentration was 0.015 ng/mL)
MSD plate coating: Coating antibody (biotinylated-BTK mAb) stock solution was prepared at 1 μg/mL in PBS buffer. 50 μL/well capture antibody (Biotinylated BTK mAb) solution was added, and the plates were shaken gently at ambient temperature for two hours. The plates were washed 3 times with 1× MSD Tris Wash Buffer in a plate washer (300 μL/well), and the plates were blocked with 3% MSD Blocker A (150 μL/well). The plates were incubated for an additional 1-2 hours at ambient temperature with gentle shaking. The plates were washed 3 times with 1× MSD wash buffer using plate washer. Bone marrow lysates (30 μg) at a final volume of 50 μL/well were added into the plates. The serially diluted standard samples were added to the same plates at a final volume of 50 μL/well. The plates were incubated overnight at 4° C. with gentle shaking.
The plates were washed three times with 1× MSD wash buffer (prepared from 10× concentration buffer) using plate washer. Primary detection antibody at 50 μL/well was added (BTK RpAb; 1:1000 dilution in 1% MSD Blocker A). The plates were incubated for two hours at ambient temperature with gentle shaking. The plates were washed three times with 1× MSD wash buffer using plate washer. Anti-Rabbit-SULFO-TAG secondary antibodies (50 μl/well) were added, 1:500 diluted in 1% MSD Blocker A, and the plates were incubated for one to two hours at ambient temperature. […]
(In general: ELISA stands for enzyme-linked immunosorbent assay.)

The target of assay [1] is BTK protein in human whole blood (Homo sapiens (Human), UniProt Q06187). As to the kind of experiment: Btk protein in human whole blood MSD ELISA based assay (Btk degradation). The conditions noted are these: human whole blood from healthy donors, 6 hours at 37° C., half maximal degradation concentration; read-out: hWB BTK DC50. The class given is cell-based. How it is done:
Btk protein degradation was tested using an Meso Scale Discovery-ELISA system (MSD-ELISA): (1) Test compounds were added to human whole blood; (2) human whole blood cells treated with test compounds were lysed; (3) lysed cells were treated with capture antibody, an antibody to Btk; (4) lysed cells were treated with […] to Btk; and (5) lysed cells were treated with anti-mouse antibody (tagged).
Specifically, about 80 μl of fresh human whole blood from healthy donors was transferred into each well of a 96-well V-bottom plate (Costar, Cat No.3894). Using a TECANTM D300e Digital Dispenser (Tecan)), 1:4 serially diluted compounds [(8 pt assay) in DMSO solution (final 0.2%) starting at 3 μM top concentration], were added in duplicate. Thereafter, plates were placed in a 37° C. incubator and incubated for 6 hours.
At the end of incubation, 80 μl of 2× CST lysis buffer (Cell Signaling Technology, Cat No. 9803), prepared from a 10× stock solution, was added per well to lyse the blood. Plates were then sealed with a plate sealer and the samples were frozen overnight at −80° C.
Total amount of BTK protein remaining in the blood samples after compound treatment was measured using MSD-ELISA. After thawing the frozen plates, blood lysates were mixed thoroughly and transferred to small spot high-bind MSD plates (Meso Scale Discovery, Cat No. L45XB-3) and coated with capturing antibody, rabbit anti-human BTK (D3H5) (Cell Signaling Technology, Cat No. 8547CF). Thereafter, primary detection antibody, mouse anti-human BTK monoclonal antibody, (BD Biosciences, Cat No. 611117) and secondary detection antibody, anti-mouse SULFO-TAG (Meso Scale Discovery, Cat No. R32AC-1) were added. The assay plates were read on an MSD S600 plate reader by the addition of 2× MSD read buffer (Meso Scale Discovery, R92TC-1). All reagent transfers, including blood lysis, was conducted using a Biomed i7 liquid handler. From the dose response curves, DC50 values were calculated by averaging data from duplicate experiments. and Curve fitting was done by non-linear regression using GraphPad Prism. The DC50 values are reported in Table 2 in the hWB BTK DC50 (nM) column The Dmax values represent the maximum amount of BTK degradation observed upon compound treatment compared to DMSO only treated samples. The dMax (%) values are reported in Table 2 in the hWB BTK dMax (%) column.

Sequence of BTK in mouse bone marrow (P35991 whole entry): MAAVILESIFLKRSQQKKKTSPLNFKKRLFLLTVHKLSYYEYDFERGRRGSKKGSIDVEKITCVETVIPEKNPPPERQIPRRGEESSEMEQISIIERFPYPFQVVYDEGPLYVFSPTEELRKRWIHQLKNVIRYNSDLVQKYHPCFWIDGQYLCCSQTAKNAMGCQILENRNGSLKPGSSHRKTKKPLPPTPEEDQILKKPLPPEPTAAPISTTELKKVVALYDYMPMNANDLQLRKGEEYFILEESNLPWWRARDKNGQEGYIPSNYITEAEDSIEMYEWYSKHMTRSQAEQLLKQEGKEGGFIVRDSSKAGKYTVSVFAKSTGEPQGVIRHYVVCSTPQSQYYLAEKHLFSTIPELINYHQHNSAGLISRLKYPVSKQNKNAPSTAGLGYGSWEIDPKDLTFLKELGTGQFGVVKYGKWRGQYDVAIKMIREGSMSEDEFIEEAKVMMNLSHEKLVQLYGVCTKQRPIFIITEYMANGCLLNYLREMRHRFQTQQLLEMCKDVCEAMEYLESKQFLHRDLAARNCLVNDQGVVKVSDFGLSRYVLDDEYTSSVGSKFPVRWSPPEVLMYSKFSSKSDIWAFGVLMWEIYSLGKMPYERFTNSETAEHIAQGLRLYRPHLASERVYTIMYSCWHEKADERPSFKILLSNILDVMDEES
Sequence of BTK protein in human whole blood (Q06187 whole entry): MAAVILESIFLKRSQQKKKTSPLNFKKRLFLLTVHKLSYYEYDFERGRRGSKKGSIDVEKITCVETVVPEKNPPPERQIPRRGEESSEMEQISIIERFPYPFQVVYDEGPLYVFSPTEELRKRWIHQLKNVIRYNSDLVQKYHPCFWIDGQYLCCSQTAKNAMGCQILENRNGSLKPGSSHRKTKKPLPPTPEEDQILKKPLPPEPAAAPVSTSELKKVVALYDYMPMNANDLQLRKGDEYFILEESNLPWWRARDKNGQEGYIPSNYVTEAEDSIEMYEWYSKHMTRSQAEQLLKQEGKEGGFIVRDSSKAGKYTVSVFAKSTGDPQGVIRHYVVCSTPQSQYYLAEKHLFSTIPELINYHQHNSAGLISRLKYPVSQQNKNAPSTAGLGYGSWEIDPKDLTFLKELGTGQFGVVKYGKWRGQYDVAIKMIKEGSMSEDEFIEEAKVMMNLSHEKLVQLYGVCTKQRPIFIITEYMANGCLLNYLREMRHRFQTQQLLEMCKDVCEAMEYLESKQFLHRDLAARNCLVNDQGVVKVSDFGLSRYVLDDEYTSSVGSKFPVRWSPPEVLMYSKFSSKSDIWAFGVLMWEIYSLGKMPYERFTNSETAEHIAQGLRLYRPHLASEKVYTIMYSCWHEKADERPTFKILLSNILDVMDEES

What is called DC50 is the concentration at which degradation of the target reaches its halfway point. As for `Cc1c([C@@H](C)NC(=O)c2nc(C(C)(C)C)no2)ccc(-c2cc(Nc3ccc(N4CCN(CCc5ccc(N6CCC(=O)NC6=O)cc5)C[C@@H]4C)cn3)ncn2)c1F` [Example 10, 3-tert-butyl-N-[(1R)-1-{4-[6-({5-[(2S)-4-{2-[4-(2,4-dioxo-1,3-diazinan-1-yl)phenyl]ethyl}-2-methylpiperazin-1-yl]pyridin-2-yl}amino)pyrimidin-4-yl]-3-fluoro-2-methylphenyl}ethyl]-1,2,4-oxadiazole-5-carboxamide], on BTK in mouse bone marrow, the “Mouse Bone Marrow (%), % remaining BTK” value is 9%. For the same molecule, in assay [1], the DC50 was 3.04 nM.
Turning to `Cc1c([C@@H](C)NC(=O)c2nc(C(C)(C)C)no2)ccc(-c2cc(Nc3ccc(N4CCN(CCc5ccc(N6CCC(=O)NC6=O)cc5)CC4)cn3)ncn2)c1F` [Example 11, 3-tert-butyl-N-{(1R)-1-[4-(6-{[5-(4-{2-[4-(2,4-dioxo-1,3-diazinan-1-yl)phenyl]ethyl}piperazin-1-yl)pyridin-2-yl]amino}pyrimidin-4-yl)-3-fluoro-2-methylphenyl]ethyl}-1,2,4-oxadiazole-5-carboxamide], the “Mouse Bone Marrow (%), % remaining BTK” value at BTK in mouse bone marrow is 29%. Further, in assay [1], the DC50 was 4.31 nM.
